Results: patent publication US6881752B2 (University of Alabama, priority 1998, dated 2005)

Assays:
[1] = system: adult-onset diabetic patients; details: cited from earlier work
[2] = biological target: T1, insulin-dependent membrane tyrosine protein kinase activity (rat adipocytic membranes) (Rattus norvegicus, UniProt P15127); assay: Rat adipocytic membrane protein tyrosine kinase activity in the presence of 100 nM insulin; format: biochemical
T1 construct: from tissue; host or cells: epididymal fat pad adipocyte membranes, male Sprague Dawley rats
Experimental: (§1) 100% activity represents the activity in the absence of added chromium complexes or their components. 25 μL of a rat membrane suspension corresponding to 0.0895 mg protein/mL was utilized.
(§2) Fat cells from male Sprague Dawley rats were isolated using the procedures of Rodbell^19 and Anderson et al.^20 with modifications.^2 Three rats (not kept on a Cr-deficient diet) were sacrificed by decapitation, and their epididymal fat pads removed. Rat adipocytes were washed with 1% bovine serum albumin (BSA). 50 mM Hepes, pH 7.4 buffer containing 10 μg/mL leupeptin and 5 μg/mL aprotinin. Cells were homogenized with a manual teflon homogenizer and frozen and thawed five times. The lipid layer was removed, and the cell homogenate was centrifuged for one hour at 40,000 g. The supernatant was removed, and the pellet was suspended in Hepes buffer and used as the source of membrane phosphatase and kinase activity. Protein concentrations were analyzed using the BCA method (Pierce Chemical Co.) with BSA as standard.

[3] = system: membrane phosphotyrosine protein phosphatase (rat adipocytic membranes); assay: Rat adipocytic membrane phosphotyrosine phosphatase activity, p-NPP substrate; format: biochemical; details: 5 mM p-NPP
Experimental: 125 μL of a rat membrane suspension corresponding to 0.0856 mg of protein/mL was utilized.
as §1, §2
p-nitrophenyl phosphate (p-NPP) was used to determine the amount of PTP activity using the method of Li et al.^21 The assay used 5 mM substrate in 0.05 M Tris, pH 7.5, unless noted. Activation of PTP activity by LMWCr and other Cr-containing species was examined as described by Davis et al.^2 Solutions of LMWCr, 1,2, and the Cr-amino acid mixture were incubated with the enzyme for fifteen minutes at 37° C. before initiation of the reaction. Hydrolyses proceeded for one hour at 37° C. The extent of hydrolysis was determined at 404 nm (ε=1.78×10^4M^−1cm^−1).

T1 sequence (P15127 764-1383 limits assumed): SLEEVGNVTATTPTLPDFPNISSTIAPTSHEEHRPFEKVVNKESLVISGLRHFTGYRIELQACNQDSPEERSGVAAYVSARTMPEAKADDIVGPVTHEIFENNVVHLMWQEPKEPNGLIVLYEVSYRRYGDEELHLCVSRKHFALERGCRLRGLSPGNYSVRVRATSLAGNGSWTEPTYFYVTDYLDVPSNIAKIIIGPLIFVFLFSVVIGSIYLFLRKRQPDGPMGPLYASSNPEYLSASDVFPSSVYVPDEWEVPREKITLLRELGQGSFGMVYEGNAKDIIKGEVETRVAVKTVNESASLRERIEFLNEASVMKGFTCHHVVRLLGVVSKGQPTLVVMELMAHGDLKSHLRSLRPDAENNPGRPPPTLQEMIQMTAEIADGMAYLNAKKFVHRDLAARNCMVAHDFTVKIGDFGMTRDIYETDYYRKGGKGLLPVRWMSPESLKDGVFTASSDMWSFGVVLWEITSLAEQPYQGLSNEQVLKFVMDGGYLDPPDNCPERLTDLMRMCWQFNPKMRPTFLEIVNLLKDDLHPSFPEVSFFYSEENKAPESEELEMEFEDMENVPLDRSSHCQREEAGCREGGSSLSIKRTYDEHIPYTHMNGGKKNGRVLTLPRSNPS
T1 sequence (P15127 27-759 partner limits assumed): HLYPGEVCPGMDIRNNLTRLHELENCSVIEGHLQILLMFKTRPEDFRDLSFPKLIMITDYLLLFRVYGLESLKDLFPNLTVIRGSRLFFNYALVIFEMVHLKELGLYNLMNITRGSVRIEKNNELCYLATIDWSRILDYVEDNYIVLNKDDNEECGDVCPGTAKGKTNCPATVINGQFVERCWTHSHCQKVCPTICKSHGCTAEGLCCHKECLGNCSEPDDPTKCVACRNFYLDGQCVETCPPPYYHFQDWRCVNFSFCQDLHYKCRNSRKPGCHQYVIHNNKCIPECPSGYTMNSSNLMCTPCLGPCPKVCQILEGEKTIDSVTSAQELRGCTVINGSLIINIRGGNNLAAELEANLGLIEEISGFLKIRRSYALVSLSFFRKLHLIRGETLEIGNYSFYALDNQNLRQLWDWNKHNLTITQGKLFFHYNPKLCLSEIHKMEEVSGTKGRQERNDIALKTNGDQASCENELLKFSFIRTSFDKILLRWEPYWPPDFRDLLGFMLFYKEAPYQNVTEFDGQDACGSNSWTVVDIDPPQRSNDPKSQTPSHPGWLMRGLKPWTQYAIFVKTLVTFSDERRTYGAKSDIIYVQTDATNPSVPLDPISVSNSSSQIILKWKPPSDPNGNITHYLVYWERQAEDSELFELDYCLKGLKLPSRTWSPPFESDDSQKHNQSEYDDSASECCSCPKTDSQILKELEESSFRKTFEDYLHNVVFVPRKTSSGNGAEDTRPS
T1 sequence (P01317 25-54 partner limits assumed): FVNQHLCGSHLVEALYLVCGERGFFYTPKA
T1 sequence (P01317 85-105 partner limits assumed): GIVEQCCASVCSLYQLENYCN

Molecule | insulin requirements ([1]; 138 adult-onset diabetic patients) | glycemic control ([1]; 180 adult-onset diabetic patients) | effect on insulin-dependent membrane kinase activity [2] | effect on membrane phosphatase activity [3]
chromium(III) picolinate | reduced insulin requirements | improved glycemic control | – | –
CCC(=O)O [Propionic acid] | – | – | do not potentiate | do not potentiate
O=[N+]([O-])O [nitrate] | – | – | do not potentiate | do not potentiate
[Cr3O(O2CCH3)6 (H2O)3]Cl [compound 2] | – | – | inhibits | inhibits
